Measurements from US20230338396A1, “CANNABIDIOL AS A T[…] FOR COVID-19” (AUGUSTA UNIVERSITY RESEARCH INSTITUTE, INC., priority 2020, published 2023).
“Also recorded” adds a separate entry of the source.

Tests used:
T cells = test: CBD inhalers in healthy young and older subjects, T cells; assay type: in vivo; conditions: CBD inhaler, 20 mg of CBD for 120 min
Poly(I:C)-induced ARDS [1] = test: Poly(I:C)-induced ARDS in mice, apelin modulation by CBD (Example 2); assay type: in vivo, C57Bl/6 mice; conditions: CBD 5 mg/kg intraperitoneal, 3 doses, after Poly(I:C)
Acute Lung Injury (ALI) = test: Inhaled CBD in Acute Lung Injury (ALI)/ARDS murine model with Poly(I:C); assay type: in vivo
Poly(I:C)-induced ARDS [2] = assay type: in vivo, C57BL/6 mice; conditions: CBD 5 mg/kg intraperitoneal
[3] = inhaled CBD compared to CBD injection
[4] = inhaled CBD, Poly(I:C)-treated mice

C=C(C)[C@@H]1CCC(C)=C[C@H]1c1c(O)cc(CCCCC)cc1O [CBD, cannabidiol]
effects on T cells frequencies or functionality (T cells): no negative effects | T cells in whole blood (flow cytometry) (Poly(I:C)-induced ARDS [1]; blood): returned decreased T cells and increased neutrophils towards the normal level | apelin expression in blood (flow cytometry) (Poly(I:C)-induced ARDS [1]; blood): normalized the expression level of apelin in the blood; also recorded: enhanced expression of apelin in the blood | neutrophils in whole blood (flow cytometry) (Poly(I:C)-induced ARDS [1]; blood): returned decreased T cells and increased neutrophils towards the normal level | apelin expression in lung tissue (immunofluorescence) (Poly(I:C)-induced ARDS [1]; lung): normalized the apelin expression in the lung tissues; also recorded: increased apelin expression towards control levels | pathological features of lung (histology, Masson's trichrome) (Poly(I:C)-induced ARDS [1]; lung): completely or partially abolished | IL-6 production in lung tissue (Acute Lung Injury (ALI); [3]): further down regulate IL-6 production | activated infiltrating leukocytes (Acute Lung Injury (ALI); [3]): decreased activated infiltrating leukocytes | destruction of lung (H&E) (Acute Lung Injury (ALI); [4]): able to prevent further destruction of lung | frequencies of T cells (lymphopenia) in peripheral blood and lung tissue (Acute Lung Injury (ALI); [4]): able to reinstate the frequencies of T cells | expression of IL-6 in lung (immunohistochemistry) (Poly(I:C)-induced ARDS [2]; 3 doses, after Poly(I:C)): reduced the expression of IL-6 | frequencies of neutrophils in the lung (immunohistochemistry) (Poly(I:C)-induced ARDS [2]; 3 doses, after Poly(I:C)): lowered the frequencies of neutrophils in the lung | inflammatory indices overall (flow cytometry of blood and lung) (Poly(I:C)-induced ARDS [2]; 3 doses, after Poly(I:C)): reversed all these inflammatory indices and partially re-established homeostasis | lung structural damage and symptoms (inflammatory infiltrate, fibrosis, hypertrophy, pulmonary edema; H&E histology) (Poly(I:C)-induced ARDS [2]; 3 doses, after Poly(I:C)): improves lung structure and function; also recorded: totally or partially reversed and returned to the level and condition of the normal | level of proinflammatory cytokines in blood (IL-6, IFNγ, TNFα) (Poly(I:C)-induced ARDS [2]; blood): reducing the number of neutrophils and monocytes as well as the level of proinflammatory cytokines significantly | number of neutrophils and monocytes in blood (flow cytometry) (Poly(I:C)-induced ARDS [2]; blood): reducing the number of neutrophils and monocytes | lymphocyte frequencies in blood (flow cytometry) (Poly(I:C)-induced ARDS [2]; blood, p<0.01): enhanced the rate of lymphocyte frequencies markedly | number of infiltrating neutrophils and macrophages in lung (flow cytometry) (Poly(I:C)-induced ARDS [2]; lung): downregulated the number of infiltrating neutrophils and macrophages markedly | level of cytokines in lung (flow cytometry) (Poly(I:C)-induced ARDS [2]; lung, p<0.05): reduced the level of cytokines significantly
